The results in this text go back to ChEMBL document CHEMBL5518158, “Recent advances in triazoles as tyrosinase inhibitors” (Eur J Med Chem, 2023).

Where “and” joins values, the source holds several entries; their conditions need not be identical. Equal values may be shown once.

One test deals with T1, Mushroom tyrosinase (Agaricus bisporus, UniProt O42713+Q00024+C7FF04+C7FF05). Briefly: Inhibition of mushroom tyrosinase using L-DOPA as substrate preincubated for 10 mins. Format: protein assay.
In general, IC50 refers to the concentration at which inhibition is half-maximal. Turning to `O=C(CSc1nnc(-c2ccc(F)cc2)n1-c1ccc(F)cc1)Nc1ccccc1`, the half-inhibitory concentration (IC50) was 0.124 µM.
Same read-out and setting: the same measure for `O=c1cc(O)oc(CSc2nnc(-c3ccccc3)n2NCc2ccc(O)cc2O)c1`: 1.35 µM; for `O=C(CSc1nnc(-c2ccccc2F)n1-c1ccc(F)cc1)Nc1ccccc1`: 0.11 µM; for `Nn1c(SCc2cc(=O)c(O)co2)nnc1-c1ccccc1Cl`: 5.35 µM.
Same read-out and setting: with `O=C(CSc1nnc(-c2ccccc2)n1-c1ccc(F)cc1)Nc1ccc(Br)cc1` the figure was 0.142 µM; with `Nn1c(SCc2cc(=O)c(O)co2)nnc1-c1ccccc1`, 7.45 µM; with `CCCCCn1nc(-c2ccccc2)n(CC(=O)NNC(=O)Nc2ccc(Cl)cc2Cl)c1=O`, 0.001 µM.
Same read-out and setting: with `Nn1c(SCc2cc(=O)c(O)co2)nnc1-c1ccc(Cl)cc1` the figure was 4.5 µM; with `Cc1ccc(-c2nnc(SCc3cc(=O)c(O)co3)n2N)cc1`, 6.25 µM.
As for `Cn1cnnc1SCc1cc(=O)c(O)co1`, the IC50 is 19.18 µM.
Same read-out and setting: the same measure for `Nn1c(SCc2cc(=O)c(O)co2)nnc1-c1ccccc1Br`: 5.98 µM; for `O=c1cc(O)oc(CSc2nnc(-c3ccccc3Cl)n2/N=C/c2ccc(O)c(O)c2)c1`: 5.2 µM.
The molecule `Cc1nnc(SCc2cc(=O)c(O)co2)n1N` yielded a concentration for half-maximal inhibition (IC50) of 91.03 µM.

A further test concerns the target T1, Mushroom tyrosinase. Put plainly: Inhibition of mushroom tyrosinase using L-DOPA as substrate preincubated for 10 mins followed by substrate addition and measured after 15 mins by spectrophotometric method. Format: protein assay.
As to `Cc1ccccc1CNC(=O)CSc1nnc(Cc2csc(N)n2)n1-c1ccccc1`, the IC50 was 0.015 µM.
Molecule `Nc1nc(Cc2nnc(SCC(=O)NCCc3ccccc3)n2-c2ccccc2)cs1` returned an IC50 of 0.01 µM.
The same measure, in the same setting: with `Cc1ccc(CNC(=O)CSc2nnc(Cc3csc(N)n3)n2-c2ccccc2)cc1C` the figure was 0.113 µM; with `Cc1cccc(CNC(=O)CSc2nnc(Cc3csc(N)n3)n2-c2ccccc2)c1C`, 2.01 µM.
Turning to `Cc1cc(C)cc(CNC(=O)CSc2nnc(Cc3csc(N)n3)n2-c2ccccc2)c1`, the concentration for half-maximal inhibition (IC50) came out at 0.24 µM.
The same measure, in the same setting: with `Cc1cccc(C)c1CNC(=O)CSc1nnc(Cc2csc(N)n2)n1-c1ccccc1` the figure was 0.05 µM; with `CCc1ccc(CNC(=O)CSc2nnc(Cc3csc(N)n3)n2-c2ccccc2)cc1`, 0.122 µM.

Another test has as its target T1, Mushroom tyrosinase. Put plainly: Inhibition of mushroom tyrosinase using L-DOPA as substrate pre-treated for 10 mins followed by substrate addition measured for 20 mins by spectrophotometric analysis. It counts as protein assay.
`Cc1ccccc1CNC(=O)CSc1nnc(Cc2csc(N)n2)n1-c1ccccc1`: the IC50 was determined as 16.832 µM.
Still for that read-out and setting: with `CCn1c(Cc2csc(N)n2)nnc1SCc1ccc(Cl)cc1` the figure was 0.006 µM; with `CCn1c(Cc2csc(N)n2)nnc1SCc1ccc(Cl)cc1Cl`, 0.001 µM.
Still for that read-out and setting: with `CCn1c(Cc2csc(N)n2)nnc1SCc1ccccc1Cl` the figure was 0.006 µM; with `CCn1c(Cc2csc(N)n2)nnc1SCc1cccc(Br)c1`, 0.002 µM.

The target in another test is T1, Mushroom tyrosinase. Briefly: Inhibition of mushroom tyrosinase. It counts as protein assay.
With `O=C1N=C(Nc2ccccc2)S/C1=C\c1ccc(OCc2cnnn2Cc2ccc(Cl)c(Cl)c2)cc1`, the IC50 stood at 49.4 µM.
Still for that read-out and setting: the same measure for `COc1ccccc1-n1c(SCC(=O)Nc2ccccc2)nnc1-c1ccccc1`: 0.0238 µM.
On the same count and under the same terms, the same measure for `CCn1c(CCCc2c[nH]c3ccccc23)nnc1SCC(=O)Nc1cccc(C)c1C`: 0.142 µM; for `C=CCc1ccc(O)c(OC)c1` [EUGENOL]: 923 µM; for `CCn1c(CCCc2c[nH]c3ccccc23)nnc1SCC(=O)Nc1ccc(C)cc1C`: 0.034 µM.
The same measure, in the same setting: the same measure for `CCn1c(CCCc2c[nH]c3ccccc23)nnc1SCC(=O)Nc1ccccc1C`: 0.036 µM.
In turn, `CCn1c(CCCc2c[nH]c3ccccc23)nnc1SCC(=O)Nc1c(C)cccc1C` came in with an IC50 of 0.035 µM.
Still for that read-out and setting: the same measure for `O=C1N=C(Nc2ccccc2)S/C1=C\c1ccccc1OCc1cn(Cc2cccc(Br)c2)nn1`: 9.81 µM; for `O=C1N=C(Nc2ccncc2)S/C1=C\c1ccccc1OCc1cn(Cc2ccccc2Cl)nn1`: 6.34 µM.
Same read-out and setting: with `CCc1ccccc1NC(=O)CSc1nnc(CCCc2c[nH]c3ccccc23)n1CC` the figure was 0.033 µM; with `COc1ccccc1-n1c(SCC(=O)Nc2ccc(Br)cc2)nnc1-c1ccccc1F`, 0.0048 µM; with `O=C1N=C(Nc2ccccc2)S/C1=C\c1ccccc1OCc1cn(Cc2ccccc2)nn1`, 8.92 µM.
On the same count and under the same terms, the same measure for `CCOc1ccc(NC(=O)CSc2nnc(CCCc3c[nH]c4ccccc34)n2CC)cc1`: 0.072 µM; for `Cc1ccc(Cn2cc(COc3ccc(-c4nc5ccccc5[nH]4)cc3)nn2)cc1C`: 9.42 µM.
As to `COc1ccc2c(c1)CC/C(=C\c1ccc(OCc3cn(Cc4cccc(Cl)c4)nn3)c(OC)c1)C2=O`, the half-inhibitory concentration (IC50) worked out at 4.64 µM.
The same measure, in the same setting: the same measure for `NC(=S)N/N=C/c1ccc(OCc2cn(CC(=O)NCc3ccccc3)nn2)cc1`: 0.11 µM; for `COc1cc(/C=N/Nc2nnc(S)n2N)ccc1O`: 14.6 µM.
With `COc1ccc2c(c1)CC/C(=C\c1ccc(OCc3cn(Cc4ccccc4F)nn3)c(OC)c1)C2=O`, the IC50 turned out to be 67.18 µM.
The same measure, in the same setting: with `O=C1N=C(Nc2ccncc2)S/C1=C\c1ccccc1OCc1cn(Cc2ccc(Cl)c(Cl)c2)nn1` the figure was 5.9 µM; with `Cc1ccc2nc(-c3ccc(OCc4cn(Cc5ccccc5)nn4)cc3)[nH]c2c1`, 43.3 µM.
Still for that read-out and setting: with `Cc1ccc(Cn2cc(COc3ccc(-c4nc5ccccc5[nH]4)cc3)nn2)cc1` the figure was 10.34 µM.
Still for that read-out and setting: the same measure for `COc1cc(C=O)ccc1O` [VANILLIN]: 4103 µM.

Another test has as its target T1, Mushroom tyrosinase. Briefly: Inhibition of mushroom tyrosinase using L-DOPA as substrate incubated for 20 mins. It counts as protein assay.
`Oc1ccccc1Cc1n[nH]c(=S)n1/N=C/c1ccc[nH]1`: the IC50 turned out to be 26.02 µM.
Still for that read-out and setting: with `COc1ccccc1Cc1n[nH]c(=S)n1/N=C/Cc1ccc(O)cc1` the figure was 20.27 µM; with `Fc1ccc(/C=N/n2c(Cc3ccccc3F)n[nH]c2=S)cc1`, 10.09 µM; with `Oc1ccc(/C=N/n2c(Cc3ccccc3F)n[nH]c2=S)cc1`, 6.23 µM.

In the next test the target is T2, Tyrosinase (Homo sapiens, UniProt P14679).
T2 sequence (P14679 whole entry): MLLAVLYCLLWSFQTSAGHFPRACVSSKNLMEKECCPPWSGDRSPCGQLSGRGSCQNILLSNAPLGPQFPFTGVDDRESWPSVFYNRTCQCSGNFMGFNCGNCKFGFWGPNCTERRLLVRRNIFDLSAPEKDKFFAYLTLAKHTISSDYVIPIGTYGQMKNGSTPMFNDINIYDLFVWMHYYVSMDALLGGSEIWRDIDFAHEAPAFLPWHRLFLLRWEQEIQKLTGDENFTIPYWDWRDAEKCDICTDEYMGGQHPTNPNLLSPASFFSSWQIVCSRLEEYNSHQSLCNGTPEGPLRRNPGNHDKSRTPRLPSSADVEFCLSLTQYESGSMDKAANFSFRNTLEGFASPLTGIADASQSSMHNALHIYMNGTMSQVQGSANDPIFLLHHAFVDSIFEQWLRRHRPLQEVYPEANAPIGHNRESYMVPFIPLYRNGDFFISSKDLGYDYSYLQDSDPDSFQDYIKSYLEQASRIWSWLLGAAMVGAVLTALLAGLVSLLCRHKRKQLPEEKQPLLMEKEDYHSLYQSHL
Put plainly: Inhibition of C-terminal His-tagged truncated form of human tyrosinase using L-DOPA as substrate by spectrophotometric assay.
`O=C1c2ccccc2C(=O)N1Cc1cn(Cc2ccccc2Cl)nn1` gave a concentration for half-maximal inhibition (IC50) of 47.2 µM.
On the same count and under the same terms, with `O=C1c2ccccc2C(=O)N1Cc1cn(Cc2ccc(Br)cc2)nn1` the figure was 40.3 µM; with `O=C1c2ccccc2C(=O)N1Cc1cn(Cc2cccc(Cl)c2)nn1`, 48.3 µM; with `O=C1NC(=S)NC(=O)C1=Cc1ccccc1OCc1cn(Cc2ccc(Br)cc2)nn1`, 44.2 µM.
On the same count and under the same terms, the same measure for `O=C1c2ccccc2C(=O)N1Cc1cn(Cc2ccccc2[N+](=O)[O-])nn1`: 26.2 µM.
Still for that read-out and setting: with `O=C1c2ccccc2C(=O)N1Cc1cn(Cc2ccccc2Br)nn1` the figure was 26.5 µM.

A further test deals with T1, Mushroom tyrosinase. Put plainly: Inhibition of mushroom tyrosinase using L-DOPA as substrate incubated for 15 mins by spectrophotometric analysis. It counts as protein assay.
As to `O=C1NC(=S)NC(=O)C1=Cc1ccccc1OCc1cn(Cc2ccccc2)nn1`, the half-maximal inhibitory concentration (IC50) came to 44.2 µM.
On the same count and under the same terms, the same measure for `O=C1NC(=O)C(=Cc2ccccc2OCc2cn(Cc3ccccc3)nn2)C(=O)N1`: 44.2 µM; for `O=C1NC(=O)C(=Cc2ccccc2OCc2cn(Cc3ccc(Br)cc3)nn2)C(=O)N1`: 26.8 µM and 49.1 µM.

For the next test, the target named is T1, Mushroom tyrosinase. Briefly: Inhibition of mushroom tyrosinase using L-DOPA as substrate preincubated for 20 mins followed by substrate addition incubated for 10 mins by absorbance based analysis. Format: protein assay.
Consider `O=c1cc(Cn2cc(COc3ccc4c(c3)OCO4)nn2)occ1O`, for which the IC50 stood at 0.06 µM.
On the same count and under the same terms, the same measure for `COc1cc(C(C)=O)ccc1OCc1cn(Cc2cc(=O)c(O)co2)nn1`: 0.03 µM; for `Cc1ccc(C(C)C)c(OCc2cn(Cc3cc(=O)c(O)co3)nn2)c1`: 0.69 µM; for `O=c1ccc2ccc(OCc3cn(Cc4cc(=O)c(O)co4)nn3)cc2o1`: 0.23 µM.
The same measure, in the same setting: with `Cc1ccc(C(C)C)cc1OCc1cn(Cc2cc(=O)c(O)co2)nn1` the figure was 0.07 µM; with `O=c1cc(OCc2cn(Cc3cc(=O)c(O)co3)nn2)c2ccccc2o1`, 0.02 µM.
